Measurements as given in patent US9340530B2, “Preparation and use of bicyclic himbacine derivatives as PAR-1 receptor antagonists” (Merck, Sharp & Dohme Corp., priority 2012, dated 2016).

What follows are compounds tested against PAR1 (Homo sapiens (Human), UniProt P25116) (assay: Par-1 FLIPR assay (calcium, HEK 293 cells, PAR1 activating peptide)). Settings: PAR1 selective receptor-activating peptide at 80% activation.
Format: cell-based
Method: HEK 293 Cells were grown in media containing DMEM, 10% FBS pen/strep/L-Glutamine and non-essential amino acids. The cells were plated in 384-well PDL coated plates at 12000 cells/well and incubated overnight at 37° C./5% CO2. Media was then removed from the cells, which were then incubated with buffer (Hank's containing HEPES and Chaps) containing FLIPR calcium-5 dye, made with buffer containing probenecid, for 60 minutes at 37° C. Varying concentrations of compound in a final concentration of 5% DMSO were then added to the cells and incubated at 25° C. for 30 minutes. […] The FLIPR reads at an excitation wavelength of 480 nm and an emission wavelength of 535 nm, and performs 60 scans over a 1-2 min reading time. The data were analyzed by taking the peak signal over a portion of the range of the 60 scans and dividing this signal by the minimum signal for that same range.

Sequence of PAR1 (P25116 22-425): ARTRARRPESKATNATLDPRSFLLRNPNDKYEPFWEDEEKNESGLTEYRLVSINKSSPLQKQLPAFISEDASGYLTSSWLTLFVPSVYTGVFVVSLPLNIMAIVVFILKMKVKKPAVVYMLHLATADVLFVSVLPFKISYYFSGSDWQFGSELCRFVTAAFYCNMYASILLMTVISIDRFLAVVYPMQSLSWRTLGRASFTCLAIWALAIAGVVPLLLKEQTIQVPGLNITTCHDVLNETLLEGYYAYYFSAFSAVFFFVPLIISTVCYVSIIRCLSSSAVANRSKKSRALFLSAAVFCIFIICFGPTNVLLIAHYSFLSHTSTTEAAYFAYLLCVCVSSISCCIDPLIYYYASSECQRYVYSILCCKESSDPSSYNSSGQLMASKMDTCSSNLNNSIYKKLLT

Row | IC50 [nM] | SMILES
1 | 3.1 | C[C@H]1OC(=O)[C@]2(C(O)c3ncco3)CC(F)(F)[C@@H](C)[C@H](/C=C/c3ccc(-c4ccccc4C#N)cn3)[C@H]12 (single isomer, unassigned) [Example 23a]
2 | 1.2 | C[C@H]1OC(=O)[C@]2(C(O)c3ncco3)CC(F)(F)[C@@H](C)[C@H](/C=C/c3ccc(-c4ccccc4C#N)cn3)[C@H]12 (single isomer, unassigned) [Example 23b]
3 | 1.6 | C[C@H]1OC(=O)[C@@H]2CC(F)(F)[C@@H](C)[C@H](/C=C/c3ccc(-c4ccccc4C#N)cn3)[C@H]12 [Example 1]
4 | 7.2 | C[C@H]1OC(=O)[C@]2(N)CC(F)(F)[C@@H](C)[C@H](/C=C/c3ccc(-c4ccccc4C#N)cn3)[C@H]12 [Example 7]
5 | 2 | C[C@H]1OC(=O)[C@]2(O)CC(F)(F)[C@@H](C)[C@H](/C=C/c3ccc(-c4ccccc4C#N)cn3)[C@H]12 [Example 8]
6 | 4.5 | C[C@H]1OC(=O)[C@]2(O)CC(F)(F)[C@@H](C)[C@H](/C=C/c3ccc(-c4ccccc4OC(F)(F)F)cn3)[C@H]12 [Example 9]
7 | 3.4 | COC(=O)[C@@]12CC(F)(F)[C@@H](C)[C@H](/C=C/c3ccc(-c4cccc(F)c4)cn3)[C@@H]1[C@@H](C)OC2=O [Example 11]
8 | 10.9 | C[C@H]1OC(=O)[C@]2(C(=O)O)CC(F)(F)[C@@H](C)[C@H](/C=C/c3ccc(-c4cccc(F)c4)cn3)[C@H]12 [Example 12]
9 | 2.7 | C[C@H]1OC(=O)[C@]2(CO)CC(F)(F)[C@@H](C)[C@H](/C=C/c3ccc(-c4ccccc4C#N)cn3)[C@H]12 [Example 15]
10 | 3.3 | C[C@H]1OC(=O)[C@]2(C(=O)NC3CCC3)CC(F)(F)[C@@H](C)[C@H](/C=C/c3ccc(-c4ccccc4C#N)cn3)[C@H]12 [Example 18]
11 | 3 | C[C@H]1OC(=O)[C@]2(C(O)c3ccccn3)CC(F)(F)[C@@H](C)[C@H](/C=C/c3ccc(-c4ccccc4C#N)cn3)[C@H]12 (some centres unmarked) [Example 19]
12 | 1.2 | C[C@H]1OC(=O)[C@]2(C(O)c3cscn3)CC(F)(F)[C@@H](C)[C@H](/C=C/c3ccc(-c4ccccc4C#N)cn3)[C@H]12 (some centres unmarked) [Example 20b]
13 | 2.5 | CC1[C@H](/C=C/c2ccc(-c3ccccc3C#N)cn2)C2[C@@H](C)OC(=O)[C@]2(C(O)c2nccs2)CC1(F)F (some centres unmarked) [Example 21a]
14 | 1.2 | C[C@H]1OC(=O)[C@]2(C(O)c3nccs3)CC(F)(F)[C@@H](C)[C@H](/C=C/c3ccc(-c4ccccc4C#N)cn3)[C@H]12 (some centres unmarked) [Example 21b]
15 | 1.9 | CC1[C@H](/C=C/c2ccc(-c3ccccc3C#N)cn2)C2[C@@H](C)OC(=O)[C@]2(C(O)c2cocn2)CC1(F)F (some centres unmarked) [Example 22a]
16 | 2.2 | C[C@H]1OC(=O)[C@]2(C(O)c3cocn3)CC(F)(F)[C@@H](C)[C@H](/C=C/c3ccc(-c4ccccc4C#N)cn3)[C@H]12 (some centres unmarked) [Example 22b]
17 | 40.7 | C[C@H]1OC(=O)[C@]2(C3(O)CNC3)CC(F)(F)[C@@H](C)[C@H](/C=C/c3ccc(-c4ccccc4C#N)cn3)[C@H]12 [Example 24]
18 | 3.3 | C[C@H]1OC(=O)[C@]2(CC#N)CC(F)(F)[C@@H](C)[C@H](/C=C/c3ccc(-c4ccccc4Cl)cn3)[C@H]12 [Example 25]
19 | 1.2 | C[C@H]1OC(=O)[C@]2(Cc3ncon3)CC(F)(F)[C@@H](C)[C@H](/C=C/c3ccc(-c4ccccc4Cl)cn3)[C@H]12 [Example 26]
20 | 0.9 | Cc1nnc(C[C@@]23CC(F)(F)[C@@H](C)[C@H](/C=C/c4ccc(-c5ccccc5Cl)cn4)[C@@H]2[C@@H](C)OC3=O)o1 [Example 28]

Row | SMILES | IC50 [nM]
21 | C[C@H]1OC(=O)C2CC(F)(F)[C@@H](C)[C@H](/C=C/c3ccc(-c4ccccc4Cl)cn3)C21 (some centres unmarked) [Example 4] | 2.7
22 | C[C@H]1OC(=O)C2CC(F)(F)[C@@H](C)[C@H](/C=C/c3ccc(-c4ccccc4OC(F)(F)F)cn3)C21 (some centres unmarked) [Example 5] | 4.7
23 | CC1[C@H](/C=C/c2ccc(-c3ccccc3C#N)cn2)C2[C@@H](C)OC(=O)[C@]2(C(O)c2cscn2)CC1(F)F (some centres unmarked) [Example 20a] | 0.9
